We go through seven molecules from PubChem BioAssay (NCI).

Values joined by “and” are separate entries in the source; they are usually repeats but may differ in a detail not shown here. Equal entries are not always repeated.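 48-hour exposure; five concentrations; linearly interpolated endpoints. GI50 marks 50% less growth. TGI: concentration producing complete growth inhibition.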 Bounds are passed on as bounds.

Holding throughout (test): inhibition of tumour cell growth, NCI panel, 48 h
Assay [1] concerns MDA-MB-231 breast.
Assay [2] relates to OVCAR-3 ovarian.
For assay [3], the system named is A549 NSCLC.
Assay [4] deals with SK-MEL-5 melanoma.
In assay [5] the test system is NCI-H226 lung.
Assay [6] concerns ACHN renal.
Assay [7] concerns DU-145 prostate.
For assay [8], the system named is UACC-62 melanoma.
In assay [9] the test system is T-47D breast.
Assay [10] concerns NCI-H522 lung.

For the molecule `N#CC1=C(N)Oc2c(sc3c(Br)cccc23)C1c1ccc(Br)cc1` (stereo unspecified), the GI50 in [1] is 1210 nM; in assay [2] it was 307 nM; in assay [3] it was 424 nM; in [4], 2210 nM; in assay [5], 4280 nM; in assay [6], 912 nM. In addition, the GI50 in assay [7] was 571 nM; in assay [8], 636 nM; in [9], 397 nM; in assay [10], 88 nM. Further, the TGI in [1] amounted to 3.7 µM; in assay [2] it was 1.15 µM; in [3] it was 2.23 µM; in [4], 14.6 µM; in [5], 20.2 µM; in assay [6], 9.37 µM. Besides, the TGI in assay [7] stood at 2.82 µM; in [8], 16.5 µM; in assay [9], 4.67 µM; in assay [10], 0.534 µM.

Take `CC(C)c1c(O)ccc2c1CCC1C(C)(C)CCCC21C` (stereo unspecified): the TGI came to 36.5 µM in assay [1]; 34.1 µM in assay [2]; 31.9 µM in assay [3]; 29.9 µM in [4]; 33.6 µM in assay [5]; 30.8 µM in [6]. Also, the TGI in [7] was determined as 28.3 µM; in assay [8], 28.9 µM; in assay [9] it was 5.75 µM; in [10], 34.6 µM.

With `Cc1cc(=O)[nH]c2cc3c(c4c(n3Cc3ccc(Cl)cc3Cl)CC(C)(C)CC4=O)c(O)c12`, the GI50 in assay [1] is above 100000 nM; in assay [2], above 100000 nM; in assay [3] it was 46300 nM; in assay [4] it was 16300 nM; in assay [5], above 100000 nM; in [6], above 100000 nM. Besides, the GI50 in assay [7] was 46200 nM; in [8] it was above 100000 nM; in assay [9] it was above 100000 nM; in [10], above 100000 nM. For the same molecule, the TGI is above 100 µM in assay [1]; above 100 µM in assay [2]; above 100 µM in assay [3]; 31.8 µM in assay [4]; above 100 µM in assay [5]; above 100 µM in assay [6]. Also, the TGI in [7], in assay [8], in [9] and in [10] was above 100 µM in each case.

With `CCCCCCCCCCC(C(O)c1ccccc1)N1CCCCC1` (stereo unspecified), the GI50 in assay [1] was 1760 nM; in assay [2] it was 1110 nM; in [3] it was 4610 nM; in [4], 1690 nM; in assay [5], 2910 nM; in [6], 2190 nM. Moreover, the GI50 was 2070 nM in assay [7], 2010 nM in [8], 1910 nM in [9] and 1940 nM in assay [10]. Besides, the TGI in assay [1] was found to be 3.69 µM; in [2], 2.57 µM; in [3], 17.1 µM; in assay [4] it was 3.06 µM; in [5], 12.4 µM; in assay [6], 4.95 µM. Also, the TGI in assay [7] was 6.72 µM; in assay [8], 4.01 µM; in assay [9], 4.35 µM; in assay [10], 3.91 µM.

With `Oc1[nH]c2c(Br)cccc2c1C1=Nc2ccccc2/C1=N/OCCN1CCCC1`, the GI50 in [1] was 1310 nM and 1210 nM; in [2], 1480 nM; in [3], 1910 nM; in [4], 1060 nM and 751 nM; in assay [5], 948 nM and 708 nM; in [6] it was 414 nM and 379 nM. For the same molecule, the GI50 was 688 nM in assay [7], 973 nM in assay [8], 3510 nM in assay [9] and 847 nM in [10]. Besides, the TGI in assay [1] was 4.95 µM and 7.97 µM; in [2] it was 3.45 µM; in assay [5] it was 3.05 µM and 29.1 µM; in [6], 2.12 µM and 3.8 µM; in assay [7], 4.31 µM; in assay [8], 2.45 µM. Further, the TGI in assay [10] was determined as 3.4 µM.

On to `CCN1C(=O)N(c2ccccc2)C2NC(=S)N(/N=C/C=C/c3ccccc3)C21` (stereo unspecified), for which the GI50 in [1] was 715 nM; in [2], 263 nM; in assay [3] it was 417 nM; in [4], 463 nM; in assay [5] it was 2790 nM; in assay [6], 763 nM. Further, the GI50 in assay [7] is 444 nM; in [8], 197 nM; in assay [9], 405 nM; in assay [10], 133 nM. In addition, the TGI in assay [1], in [3], in assay [4], in assay [5], in assay [6] and in assay [7] was above 100 µM in each case. The TGI in assay [8] is above 100 µM; in assay [9] it was above 100 µM; in [10] it was 6.6 µM.

As for `COc1ccc(C(=O)/C=C/c2ccc3c(c2)OCO3)c(OCc2ccccc2)c1`, the TGI in assay [1], in assay [2], in assay [3], in assay [4], in assay [5] and in [6] was above 100 µM each time. Besides, the TGI in [7], in assay [8], in assay [9] and in assay [10] was above 100 µM throughout.
